Tests used:
[1] = target: interaction between PD-1 and PD-L1 (Homo sapiens, UniProt Q9NZQ7); test: PD-1/PD-L1 protein-protein interaction assay (ALPHA); type: binding; conditions: 2 nM His-tagged human PD-L1, 0.6 nM PD-1-Fc, AlphaScreen
PD-1/PD-L1 interaction = target: T1, PD-1/PD-L1 interaction (Homo sapiens, UniProt Q9NZQ7); test: PD-1/PD-L1 blockage cell-based bioassay (Jurkat NFAT luciferase / CHO-PDL1 co-culture); conditions: Jurkat NFAT cells co-cultured with CHO-PDL1 cells, 6 h, luminescence
T1 construct: expressed in transfected cells
T1 sequence (Q9NZQ7 19-290): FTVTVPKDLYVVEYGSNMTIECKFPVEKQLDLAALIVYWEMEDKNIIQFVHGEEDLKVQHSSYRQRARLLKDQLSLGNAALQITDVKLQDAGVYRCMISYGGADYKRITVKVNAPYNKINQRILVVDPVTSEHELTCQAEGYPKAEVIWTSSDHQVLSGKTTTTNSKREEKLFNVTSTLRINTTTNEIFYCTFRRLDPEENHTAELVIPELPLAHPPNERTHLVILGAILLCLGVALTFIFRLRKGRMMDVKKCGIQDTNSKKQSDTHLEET

Sequence of interaction between PD-1 and PD-L1 (Q9NZQ7 19-238 limits assumed): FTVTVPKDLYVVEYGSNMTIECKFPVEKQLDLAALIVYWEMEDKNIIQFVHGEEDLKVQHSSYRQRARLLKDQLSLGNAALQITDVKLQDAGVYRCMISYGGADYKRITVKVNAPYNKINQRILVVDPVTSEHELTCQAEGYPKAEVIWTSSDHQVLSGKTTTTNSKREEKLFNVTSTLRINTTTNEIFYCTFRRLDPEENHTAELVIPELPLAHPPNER

| Compound | IC50 [1] [nM] | IC50 (PD-1/PD-L1 interaction) [nM] |
| --- | --- | --- |
| COc1cc(-n2ccc3c(-c4cccc(-c5ccc(CN6CC7(CNC(=O)C7)C6)c(OC)n5)c4Cl)cccc32)cc(OC)c1CNC[C@@H]1CCC(=O)N1 [Example 96, (S)-2-((6-(2-chloro-3-(1-(3,5-dimethoxy-4-((((5-oxopyrrolidin-2-yl)methyl)amino)methyl)phenyl)-1H-indol-4-yl)phenyl)-2-methoxypyridin-3-yl)methyl)-2,6-diazaspiro[3.4]octan-7-one] | 1 to 10 | 201 to 2000 |
| COc1cc(-n2ncc3c(-c4cccc(-c5ccc(CN6CC7(CNC(=O)C7)C6)c(OC)n5)c4Cl)cccc32)cc(OC)c1CN[C@H]1C[C@@H](O)C1 [Example 97, 2-((6-(2-chloro-3-(l-(4-(((cis-3-hydroxycyclobutyl)amino)methyl)-3,5-dimethoxyphenyl)-1H-indazol-4-yl)phenyl)-2-methoxypyridin-3-yl)methyl)-2,6-diazaspiro[3.4]octan-7-one] | < 1 | < 200 |
| COc1cc(-n2ncc3c(-c4cccc(-c5ccc(CN[C@H]6C[C@@H](O)C6)c(OC)n5)c4Cl)cccc32)cc(OC)c1CN1CC(C)(C(=O)NC2CC2)C1 [Example 100, 1-(4-(4-(2-chloro-3-(5-(((cis-3-hydroxycyclobutyl)amino)methyl)-6-methoxypyridin-2-yl)phenyl)-1H-indazol-1-yl)-2,6-dimethoxybenzyl)-N-cyclopropyl-3-methylazetidine-3-carboxamide] | < 1 | < 200 |
| COc1cc(-n2ncc3c(-c4cccc(-c5ccc(CN[C@H]6C[C@@H](O)C6)c(OC)n5)c4Cl)cccc32)cc(OC)c1CN[C@H]1C[C@@H](O)C1 [Example 101, cis-3-(((6-(2-chloro-3-(1-(4-(((cis-3-hydroxycyclobutyl)amino)methyl)-3,5-dimethoxyphenyl)-1H-indazol-4-yl)phenyl)-2-methoxypyridin-3-yl)methyl)amino)cylobutanol] | < 1 | < 200 |
| COc1cc(-n2ncc3c(-c4cccc(-c5ccc(CN[C@H]6C[C@@H](O)C6)c(OC)n5)c4Cl)cccc32)cc(OC)c1CN1CC(C)(O)C1 [Example 102, 1-(4-(4-(2-chloro-3-(5-(((cis-3-hydroxycyclobutyl)amino)methyl)-6-methoxypyridin-2-yl)phenyl)-1H-indazol-1-yl)-2,6-dimethoxybenzyl)-3-methylazetidin-3-ol] | 1 to 10 | < 200 |
| COc1cc(-n2ncc3c(-c4cccc(-c5ccc(CN6CC7(CNC(=O)C7)C6)c(OC)n5)c4Cl)cccc32)cc(OC)c1CN1CC(C)(C(N)=O)C1 [Example 103, 1-(4-(4-(2-chloro-3-(6-methoxy-5-((7-oxo-2,6-diazaspiro[3.4]octan-2-yl)methyl)pyridin-2-yl)phenyl)-1H-indazol-1-yl)-2,6-dimethoxybenzyl)-3-methylazetidine-3-carboxamide] | 1 to 10 | < 200 |
| COc1cc(-n2ncc3c(-c4cccc(-c5ccc(CN6CC(C)(C(N)=O)C6)c(OC)n5)c4Cl)cccc32)cc(OC)c1CN1CC(C)(O)C1 [Example 104, 1-((6-(2-chloro-3-(1-(4-((3-hydroxy-3-methylazetidin-1-yl)methyl)-3,5-dimethoxyphenyl)-1H-indazol-4-yl)phenyl)-2-methoxypyridin-3-yl)methyl)-3-methylazetidine-3-carboxamide] | 1 to 10 | 201 to 2000 |
| COc1cc(-n2ncc3c(-c4cccc(-c5ccc(CN[C@H]6C[C@@H](O)C6)c(OC)n5)c4Cl)cccc32)cc(OC)c1CN1CC(C)(C(N)=O)C1 [Example 105, 1-(4-(4-(2-chloro-3-(5-(((cis-3-hydroxycyclobutyl)amino)methyl)-6-methoxypyridin-2-yl)phenyl)-1H-indazol-1-yl)-2,6-dimethoxybenzyl)-3-methylazetidine-3-carboxamide] | < 1 | < 200 |
| COc1cc(-n2ncc3c(-c4cccc(-c5ccc(CN[C@H]6C[C@@H](O)C6)c(OC)n5)c4Cl)cccc32)ncc1CN[C@H]1C[C@@H](O)C1 [Example 106, cis-3-(((6-(2-chloro-3-(1-(5-(((cis-3-hydroxycyclobutyl)amino)methyl)-4-methoxypyridin-2-yl)-1H-indazol-4-yl)phenyl)-2-methoxypyridin-3-yl)methyl)amino)cyclobutanol] | < 1 | 201 to 2000 |
| COc1cc(-n2ncc3c(-c4cccc(-c5ccc(CN6CC7(CNC(=O)C7)C6)c(OC)n5)c4Cl)cccc32)cc(OC)c1CNCC(C)(C)C(N)=O [Example 107, 3-((4-(4-(2-chloro-3-(6-methoxy-5-((7-oxo-2,6-diazaspiro[3.4]octan-2-yl)methyl)pyridin-2-yl)phenyl)-1H-indazol-1-yl)-2,6-dimethoxybenzyl)amino)-2,2-dimethylpropanamide] | < 1 | < 200 |
| COc1cc(-n2ncc3c(-c4cccc(-c5ccc(CN6CC7(CNC(=O)C7)C6)c(OC)n5)c4Cl)cccc32)ncc1CNC[C@@H]1CCC(=O)N1 [Example 108, (S)-2-((6-(2-chloro-3-(1-(4-methoxy-5-((((5-oxopyrrolidin-2-yl)methyl)amino)methyl)pyridin-2-yl)-1H-indazol-4-yl)phenyl)-2-methoxypyridin-3-yl)methyl)-2,6-diazaspiro[3.4]octan-7-one] | < 1 | < 200 |
| COc1cc(-n2ncc3c(-c4cccc(-c5ccc(CN[C@H]6C[C@@H](O)C6)c(OC)n5)c4Cl)cccc32)cc(OC)c1CNCC(C)(C)C(N)=O [Example 109, 3-((4-(4-(2-chloro-3-(5-(((cis-3-hydroxycyclobutyl)amino)methyl)-6-methoxypyridin-2-yl)phenyl)-1H-indazol-1-yl)-2,6-dimethoxybenzyl)amino)-2,2-dimethylpropanamide] | 1 to 10 | < 200 |
| COc1cc(-n2ncc3c(-c4cccc(-c5ccc(CN6CC7(CNC(=O)C7)C6)c(OC)n5)c4Cl)cccc32)ncc1CNC[C@@H](C)O [Example 110, (R)-2-((6-(2-chloro-3-(1-(5-(((2-hydroxypropyl)amino)methyl)-4-methoxypyridin-2-yl)-1H-indazol-4-yl)phenyl)-2-methoxypyridin-3-yl)methyl)-2,6-diazaspiro[3.4]octan-7-one] | < 1 | 201 to 2000 |
| COc1cc(-n2ncc3c(-c4cccc(-c5ccc(CN6CC7(CNC(=O)C7)C6)c(OC)n5)c4Cl)cccc32)ncc1CN[C@H]1C[C@@H](O)C1 [Example 111, 2-((6-(2-chloro-3-(1-(5-(((cis-3-hydroxycyclobutyl)amino)methyl)-4-methoxypyridin-2-yl)-1H-indazol-4-yl)phenyl)-2-methoxypyridin-3-yl)methyl)-2,6-diazaspiro[3.4]octan-7-one] | < 1 | 201 to 2000 |
| COc1cc(-n2ncc3c(-c4cccc(-c5ccc(CN6CC7(CNC(=O)C7)C6)c(OC)n5)c4Cl)cccc32)cc(OC)c1CNC[C@@H](C)O [Example 112, (R)-2-((6-(2-chloro-3-(1-(4-(((2-hydroxypropyl)amino)methyl)-3,5-dimethoxyphenyl)-1H-indazol-4-yl)phenyl)-2-methoxypyridin-3-yl)methyl)-2,6-diazaspiro[3.4]octan-7-one] | < 1 | < 200 |
| COc1cc(-n2ncc3c(-c4cccc(-c5ccc(CN[C@H]6C[C@@H](O)C6)c(OC)n5)c4Cl)cccc32)cc(OC)c1CNC[C@@H](C)O [Example 113, cis-3-(((6-(2-chloro-3-(1-(4-((((R)-2-hydroxypropyl)amino)methyl)-3,5-dimethoxyphenyl)-1H-indazol-4-yl)phenyl)-2-methoxypyridin-3-yl)methyl)amino)cyclobutan-1-ol] | < 1 | < 200 |
| COc1cc(-n2ncc3c(-c4cccc(-c5ccc(C6=NCCN6)c(OC)n5)c4Cl)cccc32)cc(OC)c1CN1CC(C)(C(N)=O)C1 [Example 114, 1-(4-(4-(2-chloro-3-(5-(4,5-dihydro-1H-imidazol-2-yl)-6-methoxypyridin-2-yl)phenyl)-1H-indazol-1-yl)-2,6-dimethoxybenzyl)-3-methylazetidine-3-carboxamide] | 1 to 10 | 201 to 2000 |
| COc1cc(-n2ncc3c(-c4cccc(-c5ccc(CN6CC7(CCC(=O)N7)C6)c(OC)n5)c4Cl)cccc32)ncc1CNCCO [Example 116, 2-((6-(2-chloro-3-(1-(5-(((2-hydroxyethyl)amino)methyl)-4-methoxypyridin-2-yl)-1H-indazol-4-yl)phenyl)-2-methoxypyridin-3-yl)methyl)-2,5-diazaspiro[3.4]octan-6-one] | < 1 | < 200 |
| COc1cc(-n2ncc3c(-c4cccc(-c5ccc(CNC[C@@H]6CCC(=O)N6)c(OC)n5)c4Cl)cccc32)cc(OC)c1CN1CC[C@@H](C(=O)O)C1 [Example 117, (R)-1-(4-(4-(2-chloro-3-(6-methoxy-5-(((((S)-5-oxopyrrolidin-2-yl)methyl)amino)methyl)pyridin-2-yl)phenyl)-1H-indazol-1-yl)-2,6-dimethoxybenzyl)pyrrolidine-3-carboxylic acid] | < 1 | < 200 |
| COc1cc(-n2ncc3c(-c4cccc(-c5ccc(CN[C@H]6C[C@@H](O)C6)c(OC)n5)c4Cl)cccc32)ncc1CN[C@@H](CO)C(N)=O [Example 118, (S)-2-(((6-(4-(2-chloro-3-(5-(((cis-3-hydroxycyclobutyl)amino)methyl)-6-methoxypyridin-2-yl)phenyl)-1H-indazol-1-yl)-4-methoxypyridin-3-yl)methyl)amino)-3-hydroxypropanamide] | < 1 | > 2000 |
| COc1cc(-n2ncc3c(-c4cccc(-c5ccc(CN[C@H]6C[C@@H](O)C6)c(OC)n5)c4Cl)cccc32)cc(OC)c1CN[C@@H](C)CO [Example 119, cis-3-(((6-(2-chloro-3-(1-(4-((((S)-1-hydroxypropan-2-yl)amino)methyl)-3,5-dimethoxyphenyl)-1H-indazol-4-yl)phenyl)-2-methoxypyridin-3-yl)methyl)amino)cyclobutanol] | < 1 | 201 to 2000 |

— patent US20240336601A1 (Chulalongkorn University, priority 2020, published 2024)
